Like-named read-outs stand apart in the source and are kept apart here.
Columns and labels:
[1] = Plasma free fraction (fu) and unbound Cmax (Cmax,u); assay type: in vitro ADME, human; details: unbound plasma Cmax
Procedure: The prediction of DILI severity was evaluated further using the 3D combined HCI assays using plasma-free fraction. The majority of fu values were obtained from literature, when unavailable in-house prediction was utilised. Unbound plasma Cmax concentrations (Cmax,u) were derived by multiplying total plasma Cmax with the corresponding free fraction (fu) for each compound.

PHH 3D spheroids = tested on: PHH 3D spheroids; set-up: method as in Bell et al. 2018; details: 14-day exposure, three donors, ref Bell et al. 2018; cited from earlier work
HepG2 = tested on: HepG2; set-up: method as in Albrecht 2019; details: In vitro Assay; ref Albrecht 2019; cited from earlier work
[2] = cited from earlier work
[3] = tested on: primary human hepatocytes, NIH3T3 fibroblasts, BSEP, CYP3A4; details: cited from earlier work; for DILI in vitro assay prediction, Schadt (2015): BSEP & Metabolism based, ref Schadt et al. 2015
HepG2 cells [4] = details: cited from earlier work
HepG2 cells [5] = details: cited from earlier work; remark: listed apart in the source
HepG2 cells [6] = details: cited from earlier work; remark: listed apart in the source
human hepatocytes = details: cited from earlier work
[7] = tested on: THLE or HepG2 cells, isolated mitochondria, BSEP; details: cited from earlier work
PHH [8] = details: cited from earlier work
hLiMTs [9] = details: cited from earlier work
PHH spheroids = details: cited from earlier work
[10] = read-out: Human plasma Cmax; total plasma Cmax.tot, median of 9 literature references; cited from earlier work
[11] = plasma free fraction; cited from earlier work
[12] = cited from earlier work; remark: listed apart in the source
PHH [13] = details: In vitro Assay; ref Albrecht 2019; cited from earlier work
hu-MPCC = details: In vitro Assay; ref Khetani 2012; cited from earlier work
[14] = tested on: THLE-Null and THLE-3A4 cells; details: In vitro Assay; ref Gustafsson 2014; cited from earlier work
[15] = tested on: isolated mouse liver mitochondria; details: In vitro Assay; ref Porceddu 2012; cited from earlier work
[16] = in vivo; cited from earlier work
RMPCC's = details: In vitro Assay; ref Khetani 2012; cited from earlier work
hLiMTs [17] = assay: Combined HCI (HCS) and cellular ATP 3D assay in hLiMTs; details: for AC50 / minimal effective concentration: Homo sapiens; for DILI prediction hLiMTs (HCS-MEC): Microtissue model structural based (HCI), combined HCS and ATP, MEC < 25 × Cmax.tot cut-off; for hLiMTs <25x Avg Cmax ATP / hLiMTs <100x Avg Cmaxu ATP: ATP endpoint; for hLiMTs <25x Avg Cmax ATP / hLiMTs <25x Avg Cmax HCS / hLiMTs <25x Avg Cmax All: cut-off <25x Avg Cmax; for hLiMTs <100x Avg Cmaxu ATP / hLiMTs <100x Avg Cmaxu HCS / hLiMTs <100x Avg Cmaxu All: cut-off <100x Avg Cmaxu; for hLiMTs <25x Avg Cmax HCS / hLiMTs <100x Avg Cmaxu HCS: HCS endpoints; for hLiMTs <25x Avg Cmax All: all endpoints (ATP and HCS); for hLiMTs Cmax max All / hLiMTs Cmax min All / hLiMTs <10 uM All / hLiMTs <100x Avg Cmaxu All: all endpoints; for hLiMTs Cmax max All: Cmax max used; for hLiMTs Cmax min All: Cmax min used; for hLiMTs <10 uM All: cut-off <10 uM
HepaRG spheroids = assay: Combined HCI (HCS) and cellular ATP 3D assay in HepaRG spheroids; details: for HepaRG <25x Avg Cmax ATP / HepaRG <100x Avg Cmaxu ATP: ATP endpoint; for HepaRG <25x Avg Cmax ATP / HepaRG <25x Avg Cmax HCS / HepaRG <25x Avg Cmax All: cut-off <25x Avg Cmax; for HepaRG <100x Avg Cmaxu ATP / HepaRG <100x Avg Cmaxu HCS / HepaRG <100x Avg Cmaxu All: cut-off <100x Avg Cmaxu; for HepaRG <25x Avg Cmax HCS / HepaRG <100x Avg Cmaxu HCS: HCS endpoints; for HepaRG <25x Avg Cmax All: all endpoints (ATP and HCS); for HepaRG Cmax max All / HepaRG Cmax min All / HepaRG <10 uM All / HepaRG <100x Avg Cmaxu All: all endpoints; for HepaRG Cmax max All: Cmax max used; for HepaRG Cmax min All: Cmax min used; for HepaRG <10 uM All: cut-off <10 uM; for AC50 / minimal effective concentration: Homo sapiens; for HepaRG <25x Avg Cmax ATP / HepaRG <100x Avg Cmaxu ATP / HepaRG <25x Avg Cmax HCS / HepaRG <100x Avg Cmaxu HCS / HepaRG <25x Avg Cmax All / HepaRG Cmax max All / HepaRG Cmax min All / HepaRG <10 uM All / HepaRG <100x Avg Cmaxu All / AC50 / minimal effective concentration: HepaRG; for DILI prediction HepaRG spheroids (HCS-MEC): Microtissue model structural based (HCI), combined HCS and ATP, MEC < 25 × Cmax.tot cut-off
OATP1B1 = details: known substrates; cited from earlier work
[18] = tested on: HepG2 C3A spheroid, BSEP, Glu/Gal in HepG2 cells, bioactivation; details: Bayesian modeling; ref Williams et al. 2019; cited from earlier work
[19] = In vitro Assay, ref Schadt 2015
[20] = In vitro Assay, ref Proctor 2017
[21] = Modeled in vitro assays (cytotoxicity, mitochondrial dysfunction, BSEP), ref Aleo et al. 2019
[22] = HCS endpoints only, 25 × Cmax.tot cut-off

## O=C(O)Cc1ccccc1Nc1c(Cl)cccc1Cl [diclofenac]
[1]
  Human plasma Cmax,u: 0.101 µM
PHH 3D spheroids
  detection at 10 × Cmax.tot cut-off: only detected by one of three donors
HepG2
  Cytotoxicity HepG2 48 hrs: +VE
[2]; in vivo
  DILI +VE (5-8), DILI -VE (-4): +VE
  DILI severity category (Chen et al. [2016]): Most
[3]
  DILI in vitro assay prediction, Schadt (2015): +VE
[3]; [19]
  Cellular toxicity (3T3 cells): -VE
  Combined Assay: +VE
  GSH adduct HML: +VE
  Hepatocyte cellular toxicity: -VE
  MitoTox 3T3: -VE
  TDI CYP3A4: -VE
  hBSEP inhibition: -VE
HepG2 cells [4]; In vitro Assay, ref O'Brien 2006
  Structural based (HCI): +VE
HepG2 cells [4]
  DILI in vitro assay prediction, O'Brien (2006): +VE (key: +VE: lowest HCI endpoint IC50 (or in the absence of dose–response < 100 µM) < 30 × total human plasma exposure levels (Cmax.tot))
HepG2 cells [5]; In vitro Assay, ref Persson 2013
  Structural based (HCI): -VE
HepG2 cells [5]
  Cluser analysis: -VE
  DILI in vitro assay prediction, Persson (2013): -VE
HepG2 cells [6]; In vitro Assay, ref Tolosa 2012
  Structural based (HCI): +VE
HepG2 cells [6]
  DILI in vitro assay prediction, Tolosa (2012): +VE
Human hepatocytes
  DILI in vitro assay prediction, Xu (2008): +VE
[7]
  Ro2 Hybrid HRM Score: +VE
PHH [8]; 2D PHH, ATP, IC50 threshold 100 µM, ref Proctor et al. 2017
  PHH/100uM, Proctor (2017): -VE
PHH [8]; [20]
  PHH ATP <100uM: -VE
hLiMTs [9]; [20]
  hLiMTs ATP <100uM: +VE (IC50 threshold of 100 µM)
hLiMTs [9]; hLiMTs, ATP, IC50 threshold 100 µM, ref Proctor et al. 2017
  hLiMTs/100uM, Proctor (2017): +VE (IC50 threshold of 100 µM)
PHH spheroids; In vitro Assay, ref Vorrink 2018
  hLiMTs ATP <20 x Cmax: +VE (IC20 < 20 × Cmax.tot cut-off)
PHH spheroids
  DILI in vitro assay prediction, Vorrink (2018): +VE (key: +VE: IC20 < 20 × Cmax.tot cut-off)
[10]
  Cmax: 10.1 µM
[11]
  fu: 0.010
[12]; in vivo
  Assigned DILI category: 3
  In vivo DILI: +VE
PHH [13]
  Cytotoxicity PHH 48 hrs: +VE
hu-MPCC
  HMPCC's: +VE
[14]
  THLE-Null: +VE
[15]
  in vitro data EC2<=1x Cmax: +VE
[16]
  DILI Score (FDA) (1-8): 7
RMPCC's
  RMPCC's: +VE
hLiMTs [17]; read-out: ATP endpoint AC50
  AC50: 62.1 µM
hLiMTs [17]; read-out: ATP endpoint MEC
  minimal effective concentration: 17.2 µM
hLiMTs [17]; read-out: HCS endpoint AC50
  AC50: 293 µM
hLiMTs [17]; read-out: HCS endpoint MEC
  minimal effective concentration: 45 µM
hLiMTs [17]
  DILI prediction hLiMTs (HCS-MEC): +VE (MEC < 25 × Cmax.tot cut-off)
  hLiMTs <25x Avg Cmax ATP: +ve
  hLiMTs <100x Avg Cmaxu ATP: -ve
  hLiMTs <25x Avg Cmax HCS: +ve
  hLiMTs <100x Avg Cmaxu HCS: -ve
  hLiMTs <25x Avg Cmax All: +ve
  hLiMTs Cmax max All: +ve
  hLiMTs Cmax min All: +ve
  hLiMTs <10 uM All: -ve
  hLiMTs <100x Avg Cmaxu All: -ve
HepaRG spheroids
  HepaRG <25x Avg Cmax ATP: +ve
  HepaRG <100x Avg Cmaxu ATP: -ve
  HepaRG <25x Avg Cmax HCS: +ve
  HepaRG <100x Avg Cmaxu HCS: -ve
  HepaRG <25x Avg Cmax All: +ve
  HepaRG Cmax max All: +ve
  HepaRG Cmax min All: +ve
  HepaRG <10 uM All: -ve
  HepaRG <100x Avg Cmaxu All: -ve
  DILI prediction HepaRG spheroids (HCS-MEC): +VE (MEC < 25 × Cmax.tot cut-off)
HepaRG spheroids; read-out: ATP endpoint AC50
  AC50: 78 µM
HepaRG spheroids; read-out: ATP endpoint MEC
  minimal effective concentration: 38.2 µM
HepaRG spheroids; read-out: HCS endpoint AC50
  AC50: 98.6 µM
HepaRG spheroids; read-out: HCS endpoint MEC
  minimal effective concentration: 42.9 µM

## Cc1cc2c(cc1CC(=O)c1sccc1S(=O)(=O)Nc1onc(C)c1Cl)OCO2 [sitaxsentan]
[1]
  Human plasma Cmax,u: 0.126 µM
OATP1B1
  substrate for hepatic uptake transporter OATP1B1: known substrates
[2]; LTKB DILIrank category, ref Chen et al. 2016
  DILI severity category (Chen et al. [2016]): Most
[2]; human DILI classification, LTKB DILIrank, ref Chen et al. 2016
  DILI severity category (Chen 2016): Most
[2]; human DILI severity, ref Chen et al.
  DILI severity category: Most
[3]
  DILI in vitro assay prediction, Schadt (2015): +VE
[7]; [21]
  Partition Hybrid HRM Score ≥4, Aleo (2019): +VE (Partition Hybrid HRM Score ≥4)
  Partition Hybrid HRM Score ≥8, Aleo (2019): +VE (Partition Hybrid HRM Score ≥8)
  Rule of Two hybrid HRM Score ≥3, Aleo (2019): +VE (Rule of Two hybrid HRM Score ≥3)
  Rule of Two hybrid HRM Score ≥8, Aleo (2019): +VE (Rule of Two hybrid HRM Score ≥8)
hLiMTs [9]; hLiMTs, ATP, IC50 < 100 × Cmax.tot, ref Proctor et al. 2017
  hLiMTs/100xCmax, Proctor (2017): +VE (IC50 < 100 × Cmax.tot)
[18]
  Bayesian Machine Learning DILI prediction, Williams (2019): +VE
[10]
  Cmax: 25.3 µM
[11]
  fu: 0.005
[12]; Chen et al. 2016 or literature alignment, ref Chen et al. 2016
  Assigned DILI category: 3
hLiMTs [17]; [22]
  DILI prediction hLiMTs, HCI alone: detection
hLiMTs [17]; read-out: HCS endpoint MEC
  minimal effective concentration: 130 µM
hLiMTs [17]
  DILI prediction hLiMTs (HCS-MEC): +VE (MEC < 25 × Cmax.tot cut-off)
  hLiMTs <25x Avg Cmax ATP: -ve
  hLiMTs <100x Avg Cmaxu ATP: -ve
  hLiMTs <25x Avg Cmax HCS: +ve
  hLiMTs <100x Avg Cmaxu HCS: -ve
  hLiMTs <25x Avg Cmax All: +ve
  hLiMTs Cmax max All: +ve
  hLiMTs Cmax min All: +ve
  hLiMTs <10 uM All: -ve
  hLiMTs <100x Avg Cmaxu All: -ve
hLiMTs [17]; cellular ATP only, 25 × Cmax.tot cut-off
  DILI prediction hLiMTs, ATP alone: unpredicted
HepaRG spheroids; [22]
  DILI prediction HepaRG spheroids, HCI alone: positive
HepaRG spheroids
  HepaRG <25x Avg Cmax ATP: -ve
  HepaRG <100x Avg Cmaxu ATP: -ve
  HepaRG <25x Avg Cmax HCS: +ve
  HepaRG <100x Avg Cmaxu HCS: +ve (<100x Avg Cmaxu)
  HepaRG <25x Avg Cmax All: +ve
  HepaRG Cmax max All: +ve
  HepaRG Cmax min All: +ve
  HepaRG <10 uM All: +ve (<10 uM)
  HepaRG <100x Avg Cmaxu All: +ve (<100x Avg Cmaxu)
  DILI prediction HepaRG spheroids (HCS-MEC): +VE (MEC < 25 × Cmax.tot cut-off)
HepaRG spheroids; read-out: HCS endpoint AC50
  AC50: 9.74 µM
HepaRG spheroids; read-out: HCS endpoint MEC
  minimal effective concentration: 8.53 µM

Reference: paper PMC7395068, “The evolution of strategies to minimise the risk of human drug-induced liver injury (DILI) in drug discovery and development” (Archives of Toxicology, 2020)
